Among the test systems are KOPN8 cell line; SEM cell line; MOLT-3 cell line; B1 cell line; TIB-202 cell line.
Common to all, as to experiment: cells
Common to all, as to assay type: cell-based, human

pIC50: −log10 of the molar value.

In the case of `C[C@@H](CN1CC(=O)NC(=O)C1)N1CC(=O)NC(=O)C1` [Dexrazoxone], the negative logarithm of the IC50 (pIC50) (commonly −log10 of the IC50, conventionally taken in molar units) in the assay with KOPN8 cell line (Homo sapiens, KOPN-8, 96 h) is below 5.30; in the assay with SEM cell line (Homo sapiens, 96 h), below 5.00; in the assay with MOLT-3 cell line (Homo sapiens, MOLT-3, 96 h), below 5.00; in the assay with B1 cell line (Homo sapiens, 96 h), below 5.00; with TIB-202 cell line (Homo sapiens, 96 h) it was below 5.30.

`CC1=C(/C=C/C(C)=C/C=C/C(C)=C/C(=O)O)C(C)(C)CCC1` [Tretinoin]: the pIC50 was below 5.30 with KOPN8 cell line (Homo sapiens, KOPN-8, 96 h); below 5.00 in the assay with SEM cell line (Homo sapiens, 96 h); below 5.00 in the assay with MOLT-3 cell line (Homo sapiens, MOLT-3, 96 h); below 5.00 with B1 cell line (Homo sapiens, 96 h); below 5.30 in the assay with TIB-202 cell line (Homo sapiens, 96 h).

Take `CS(=O)(=O)CCNCc1ccc(-c2ccc3ncnc(Nc4ccc(OCc5cccc(F)c5)c(Cl)c4)c3c2)o1` [Lapatinib]: the pIC50 in the assay with KOPN8 cell line (Homo sapiens, KOPN-8, 96 h) was 5.28; in the assay on SEM cell line (Homo sapiens, 96 h) it was 5.33; in the assay with MOLT-3 cell line (Homo sapiens, MOLT-3, 96 h) it was below 5.00; with B1 cell line (Homo sapiens, 96 h), 5.24; in the assay with TIB-202 cell line (Homo sapiens, 96 h), 5.13.

As for `O=C1CCC(N2C(=O)c3ccccc3C2=O)C(=O)N1` (stereo not drawn) [Thalidomide], the pIC50 in the assay with KOPN8 cell line (Homo sapiens, KOPN-8, 96 h) was below 5.30; with SEM cell line (Homo sapiens, 96 h), below 5.00; in the assay with MOLT-3 cell line (Homo sapiens, MOLT-3, 96 h), below 5.00; in the assay on B1 cell line (Homo sapiens, 96 h), below 5.00; in the assay with TIB-202 cell line (Homo sapiens, 96 h), below 5.30.

As to `CCN(CC)CCNC(=O)c1c(C)[nH]c(/C=C2\C(=O)Nc3ccc(F)cc32)c1C` [Sunitinib], the pIC50 in the assay on KOPN8 cell line (Homo sapiens, KOPN-8, 96 h) is 5.48; with SEM cell line (Homo sapiens, 96 h) it was 6.87; in the assay on MOLT-3 cell line (Homo sapiens, MOLT-3, 96 h) it was below 5.00; in the assay with B1 cell line (Homo sapiens, 96 h) it was 5.27; with TIB-202 cell line (Homo sapiens, 96 h), 5.48.

With `C[C@]12CC[C@@H]3c4ccc(OC(=O)N(CCCl)CCCl)cc4CC[C@H]3[C@@H]1CC[C@@H]2O` [Estramustine], the pIC50 is below 5.00 in the assay on KOPN8 cell line (Homo sapiens, KOPN-8, 96 h); below 5.00 in the assay on SEM cell line (Homo sapiens, 96 h); below 5.00 with MOLT-3 cell line (Homo sapiens, MOLT-3, 96 h); below 5.00 in the assay on B1 cell line (Homo sapiens, 96 h); below 5.00 in the assay on TIB-202 cell line (Homo sapiens, 96 h).

For `CCN(CC)CCCC(C)Nc1c2ccc(Cl)cc2nc2ccc(OC)cc12` (stereo not drawn) [Acrichine], the pIC50 is 6.14 in the assay with KOPN8 cell line (Homo sapiens, KOPN-8); 5.19 in the assay with SEM cell line (Homo sapiens, 96 h); 5.39 in the assay on MOLT-3 cell line (Homo sapiens, MOLT-3, 96 h); 5.33 with B1 cell line (Homo sapiens, 96 h); 5.35 with TIB-202 cell line (Homo sapiens, 96 h).

`Oc1ncc(N(CCCl)CCCl)c(O)n1` [Uracil mustard]: the pIC50 in the assay on KOPN8 cell line (Homo sapiens, KOPN-8, 96 h) is 5.65; with SEM cell line (Homo sapiens, 96 h) it was 5.31; with MOLT-3 cell line (Homo sapiens, MOLT-3, 96 h) it was 5.02; in the assay on B1 cell line (Homo sapiens, 96 h), 5.44; with TIB-202 cell line (Homo sapiens, 96 h) it was 5.57.

For `N.N.[Cl][Pt][Cl]` [Cisplatin], the pIC50 was below 5.30 in the assay on KOPN8 cell line (Table S1, KOPN8, 96 hours); below 5.00 in the assay with SEM cell line (Table S1, SEM, 96 hours); below 5.00 in the assay with MOLT-3 cell line (Table S1, MOLT-3, 96 hours); below 5.00 in the assay with B1 cell line (Table S1, B1, 96 hours); below 5.30 with TIB-202 cell line (Table S1, TIB-202, 96 hours).

With `S=P(N1CC1)(N1CC1)N1CC1` [Thiotepa], the pIC50 in the assay with KOPN8 cell line (Homo sapiens, KOPN-8, 96 h) was 5.71; with SEM cell line (Homo sapiens, 96 h), 5.42; in the assay on MOLT-3 cell line (Homo sapiens, MOLT-3, 96 h) it was 5.52; in the assay on B1 cell line (Homo sapiens, 96 h) it was 5.20; with TIB-202 cell line (Homo sapiens, 96 h), 5.30.

For `CC(=O)O[C@]1(C(C)=O)CC[C@H]2[C@@H]3C=C(C)C4=CC(=O)CC[C@]4(C)[C@H]3CC[C@@]21C` [Megestrol acetate], the pIC50 was below 5.30 with KOPN8 cell line (Homo sapiens, KOPN-8, 96 h); below 5.00 in the assay on SEM cell line (Homo sapiens, 96 h); below 5.00 with MOLT-3 cell line (Homo sapiens, MOLT-3, 96 h); below 5.00 in the assay with B1 cell line (Homo sapiens, 96 h); below 5.30 in the assay on TIB-202 cell line (Homo sapiens, 96 h).

As for `OC[C@H]1O[C@@H](n2cnc3c2NC=NC[C@H]3O)C[C@@H]1O` [Pentostatin], the pIC50 in the assay with KOPN8 cell line (Homo sapiens, KOPN-8, 96 h) is below 5.30; with SEM cell line (Homo sapiens, 96 h) it was below 5.00; in the assay on MOLT-3 cell line (Homo sapiens, MOLT-3, 96 h), below 5.00; in the assay with B1 cell line (Homo sapiens, 96 h) it was below 5.00; in the assay on TIB-202 cell line (Homo sapiens, 96 h), below 5.30.

On to `Nc1cccc2c1CN(C1CCC(=O)NC1=O)C2=O` (stereo not drawn) [Lenalidomide], for which the pIC50 in the assay on KOPN8 cell line (Homo sapiens, KOPN-8, 96 h) was below 5.00; in the assay with SEM cell line (Homo sapiens, 96 h) it was below 5.00; with MOLT-3 cell line (Homo sapiens, MOLT-3, 96 h), 5.00; with B1 cell line (Homo sapiens, 96 h), below 5.00; in the assay with TIB-202 cell line (Homo sapiens, 96 h), below 5.00.

For `O=C(c1ccc(OCCN2CCCCC2)cc1)c1c(-c2ccc(O)cc2)sc2cc(O)ccc12` [Raloxifene], the pIC50 in the assay with KOPN8 cell line (Homo sapiens, KOPN-8, 96 h) was 5.08; in the assay on SEM cell line (Homo sapiens, 96 h), 5.35; in the assay with MOLT-3 cell line (Homo sapiens, MOLT-3, 96 h), below 5.00; with B1 cell line (Homo sapiens, 96 h), below 5.00; in the assay with TIB-202 cell line (Homo sapiens, 96 h) it was below 5.00.

As to `Cc1ccc(-c2cc(C(F)(F)F)nn2-c2ccc(S(N)(=O)=O)cc2)cc1` [Celecoxib], the pIC50 in the assay on KOPN8 cell line (Homo sapiens, KOPN-8, 96 h) was below 5.00; in the assay on SEM cell line (Homo sapiens, 96 h), below 5.00; with MOLT-3 cell line (Homo sapiens, MOLT-3, 96 h), below 5.00; in the assay on B1 cell line (Homo sapiens, 96 h), below 5.00; in the assay with TIB-202 cell line (Homo sapiens, 96 h), below 5.00.
